Results taken from patent publication US20110092544A1, “FUNGICIDAL PYRIDINES” (E.I. DU PONT DE nemours and company, priority 2008, published 2011).

Assays:
Type in all cases: in vivo
Septoria tritici = test: Test C: wheat leaf blotch, preventive spray on wheat seedlings, visual disease rating
Description: (§1) General protocol for preparing test suspensions for Tests A-H: The test compounds were first dissolved in acetone in an amount equal to 3% of the final volume and then suspended at the desired concentration (in ppm) in acetone and purified water (50/50 mix) containing 250 ppm of the surfactant Trem® 014 (polyhydric alcohol esters). The resulting test suspensions were then used in tests A-H. Spraying a 200 ppm test suspension to the point of run-off on the test plants was the equivalent of a rate of 500 g/ha.
The test suspension was sprayed to the point of run-off on wheat seedlings. The following day the seedlings were inoculated with a spore suspension of Septoria tritici (the causal agent of wheat leaf blotch) and incubated in a saturated atmosphere at 20° C. for 48 h, and moved to a growth chamber at 20° C. for 19 additional days, after which time disease ratings were visually made.
(§2) Results for Tests A-H are given in Table A. In the table, a rating of 100 indicates 100% disease control and a rating of 0 indicates no disease control (relative to the controls). A dash (-) indicates no test results. All results are for compounds tested at 200 ppm except where the compound number is followed by “*” which indicates the compound was tested at 40 ppm.

Septoria nodorum = test: Test D: wheat glume blotch, preventive spray on wheat seedlings, visual disease rating
Description: as §1
The test suspension was sprayed to the point of run-off on wheat seedlings. The following day the seedlings were inoculated with a spore suspension of Septoria nodorum (the causal agent of wheat glume blotch) and incubated in a saturated atmosphere at 20° C. for 48 h, and then moved to a growth chamber at 20° C. for 7 days, after which time disease ratings were visually made.
as §2

[1] = test system: Erysiphe graminis f. sp. tritici; test: Test A: wheat powdery mildew, preventive spray on wheat seedlings, visual disease rating
Description: as §1
The test suspension was sprayed to the point of run-off on wheat seedlings. The following day the seedlings were inoculated with a spore dust of Erysiphe graminis f. sp. tritici (the causal agent of wheat powdery mildew) and incubated in a growth chamber at 20° C. for 8 days, after which time disease ratings were visually made.
as §2

[2] = test system: Puccinia recondite f. sp. tritici; test: Test B: wheat leaf rust, preventive spray on wheat seedlings, visual disease rating
Description: as §1
The test suspension was sprayed to the point of run-off on wheat seedlings. The following day the seedlings were inoculated with a spore suspension of Puccinia recondite f. sp. tritici (the causal agent of wheat leaf rust) and incubated in a saturated atmosphere at 20° C. for 24 h, and then moved to a growth chamber at 20° C. for 7 days, after which time disease ratings were visually made.
as §2

Botrytis cinerea = test: Test F: tomato botrytis, preventive spray on tomato seedlings, visual disease rating
Description: as §1
The test suspension was sprayed to the point of run-off on tomato seedlings. The following day the seedlings were inoculated with a spore suspension of Botrytis cinerea (the causal agent of tomato botrytis) and incubated in saturated atmosphere at 20° C. for 48 h, and then moved to a growth chamber at 24° C. for 3 additional days, after which time disease ratings were visually made.
as §2

Alternaria solani = test: Test E: tomato early blight, preventive spray on tomato seedlings, visual disease rating
Description: as §1
The test suspension was sprayed to the point of run-off on tomato seedlings. The following day the seedlings were inoculated with a spore suspension of Alternaria solani (the causal agent of tomato early blight) and incubated in a saturated atmosphere at 27° C. for 48 h, and then moved to a growth chamber at 20° C. for 5 days, after which time disease ratings were visually made.
as §2

[3] = 200 ppm, 100 = 100% disease control, 0 = no control
[4] = 40 ppm (compound number followed by *)

Compound	Test C rating (% disease control) (Septoria tritici; [3]) [%]	Test D rating (% disease control) (Septoria nodorum; [3]) [%]	Test A rating (% disease control) [1, 3] [%]	Test B rating (% disease control) [2, 3] [%]	Test F rating (% disease control) (Botrytis cinerea; [3]) [%]	Test E rating (% disease control) (Alternaria solani; [3]) [%]	Test C rating (% disease control) (Septoria tritici; [4]) [%]	Test D rating (% disease control) (Septoria nodorum; [4]) [%]	Test A rating (% disease control) [1, 4] [%]	Test B rating (% disease control) [2, 4] [%]	Test F rating (% disease control) (Botrytis cinerea; [4]) [%]	Test E rating (% disease control) (Alternaria solani; [4]) [%]
COc1ccc(-c2c(C)ncc(C(C)(O)CO)c2-c2cc(OC)cc(OC)c2)cc1 (single isomer, unassigned) [Compound 83]	95	0	95	99	54	99						
COc1ccc(-c2c(C)ncc(C(C)(O)CO)c2-c2cc(OC)cc(OC)c2)cc1 (single isomer, unassigned) [Compound 85]	43	0	43	61	96	0						
COc1cc(OC)cc(-c2c(C(C)=NO)cnc(C)c2-c2c(F)cc(F)cc2F)c1 (single isomer, unassigned) [Compound 114]							99	69	89	99	99	94
COc1cc(OC)cc(-c2c(C(C)=NO)cnc(C)c2-c2c(F)cc(F)cc2F)c1 (single isomer, unassigned) [Compound 117]							99	82	93	100	99	99
C=C(C)c1cnc(CC)c(-c2ccccc2)c1-c1cc(OC)cc(OC)c1 [Compound 29]							98	0	91	0	80	91
COc1cc(OC)cc(-c2c(C3CCOCC3)cnc(C)c2-c2ccc(F)cc2)c1 [Compound 59]	97	92	79	100	100	100						
CCOC(=O)c1cnc(C)c(-c2ccc(OC)cc2)c1-c1cc(OC)cc(OC)c1 [Compound 60]	68	0	59	59	99	0						
COc1ccc(-c2c(C)ncc(C(C)=O)c2-c2cc(OC)cc(OC)c2)cc1 [Compound 61]	84	0	86	99	99	83						
COc1ccc(-c2c(C)ncc(C(C)(C)O)c2-c2cc(OC)cc(OC)c2)cc1 [Compound 62]	94	73	80	100	95	100						
CCC(C)c1cnc(C)c(-c2ccc(F)cc2)c1-c1cc(OC)cc(OC)c1 (centres unmarked) [Compound 63]	79	0	78	96	97	74						
C=C(C)c1cnc(C)c(-c2ccc(OC)cc2)c1-c1cc(OC)cc(OC)c1 [Compound 64]	95	90	85	99	99	100						
COc1ccc(-c2c(C)ncc(C(C)C)c2-c2cc(OC)cc(OC)c2)cc1 [Compound 65]	96	0	80	98	99	100						
CCOC(=O)c1cnc(C)c(-c2c(F)ccc(F)c2F)c1-c1cc(OC)cc(OC)c1 [Compound 66]	98	0	99	98	95	99						
COc1cc(OC)cc(-c2c(C3CCCC3)cnc(C)c2-c2c(F)cccc2F)c1 [Compound 67]							95	0	100	100	99	99
COc1cc(OC)cc(-c2c(C(C)=O)cnc(C)c2-c2c(F)ccc(F)c2F)c1 [Compound 68]	88	0	100	99	99	99						
COc1cc(OC)cc(-c2c(C(C)(C)O)cnc(C)c2-c2c(F)ccc(F)c2F)c1 [Compound 69]	94	86	99	100	91	100						
CCOC(=O)c1cnc(C)c(-c2c(F)cc(OC)cc2F)c1-c1cc(OC)cc(OC)c1 [Compound 70]	93	0	94	95	97	79						
COc1cc(OC)cc(-c2c(C(C)=O)cnc(C)c2-c2c(F)cc(OC)cc2F)c1 [Compound 71]	95	81	98	100	99	100						
COc1cc(OC)cc(-c2c(C(C)C)cnc(C)c2-c2c(F)ccc(F)c2F)c1 [Compound 78]							92	0	100	99		96
